Laboratory results reported in patent publication US11613538B2, “Method of inhibiting or reducing a viral infection” (PTC Therapeutics, Inc., priority 2009, dated 2023).
pEC50: −log10 of the molar value.

tested on: hypoxia-induced VEGF production in HeLa cells; test: cells; type: cell-based, human; conditions: Homo sapiens, HeLa

Structure (SMILES)	pEC50
CN1CCC(Oc2ccc([C@H]3c4[nH]c5ccc(Cl)cc5c4CCN3C(=O)Oc3ccc(Cl)cc3)cc2)CC1 [Compound 1694]	> 8.10
COCCN1CCN(C(=O)COc2ccc(C3c4[nH]c5ccc(Cl)cc5c4CCN3C(=O)Oc3ccc(F)cc3)cc2)CC1 (centres unmarked) [Compound 1021]	6.70 to 7.40
COc1ccc(C2c3[nH]c4ccc(Cl)cc4c3CCN2c2nc(-c3ccccc3)cs2)cc1 (centres unmarked) [Compound 1598]	> 8.10
COc1ccc(C2NCCc3c2[nH]c2ccc(S(C)(=O)=O)cc32)cc1 (centres unmarked) [Compound 1504]	< 6.00
CCOC(=O)N1CCc2c([nH]c3ccc(Cl)cc23)[C@@H]1c1ccc(OCCCNC2CC2)cc1 [Compound 1264]	7.40 to 8.10
COc1ccc(OC(=O)N2CCc3c([nH]c4cc(F)ccc34)C2c2ccc(F)cc2)cc1 (centres unmarked) [Compound 1458]	< 6.00
CC1(COc2ccc([C@H]3c4[nH]c5ccc(Cl)cc5c4CCN3C(=O)OC3CCCC3)cc2)COC(C)(C)OC1 [Compound 1319]	> 8.10
CCOC(=O)N1CCc2c([nH]c3ccc(Cl)cc23)C1c1ccc(OCCC2CCCN2C)cc1 (centres unmarked) [Compound 1006]	6.70 to 7.40
NC(=O)COc1ccc(C2c3[nH]c4ccc(Cl)cc4c3CCN2C(=O)Oc2ccc(F)cc2)cc1 (centres unmarked) [Compound 1215]	7.40 to 8.10
COc1ccc(C2c3[nH]c4ccc(Cl)cc4c3CCN2C(=O)C(=O)Oc2ccccc2)cc1 (centres unmarked) [Compound 1724]	< 6.00
COc1ccc(C2c3[nH]c4ccc(Cl)cc4c3CCN2C(=O)C(=O)Oc2ccc(F)cc2)cc1 (centres unmarked) [Compound 1722]	< 6.00
CCOC(=O)N1CCc2c([nH]c3ccc(Cl)cc23)[C@@H]1c1ccc(OC[C@@H]2COC(C)(C)O2)cc1 [Compound 1261]	> 8.10
CCN1CCN(C(=O)COc2ccc(C3c4[nH]c5ccc(Cl)cc5c4CCN3C(=O)Oc3ccc(OC)cc3)cc2)CC1 (centres unmarked) [Compound 1028]	6.70 to 7.40
CCOC(=O)N1CCc2c([nH]c3ccc(Cl)cc23)C1c1cccc(OCCCN(CCOC)CCOC)c1 (centres unmarked) [Compound 1118]	6.00 to 6.70
CC(C)COC(=O)N1CCc2c([nH]c3ccc(Cl)cc23)C1c1ccc(OCCCO)cc1 (centres unmarked) [Compound 1061]	> 8.10
COc1ccc(C2c3[nH]c4ccc(Cl)cc4c3CCN2c2nc(C)c(C(=O)N(C)C)s2)cc1 (centres unmarked) [Compound 1588]	6.70 to 7.40
COc1ccc(C2c3[nH]c4ccc([S+](C)[O-])cc4c3CCN2C(=O)Oc2ccc(F)cc2)cc1 (centres unmarked) [Compound 1491]	< 6.00
O[C@@H](COc1ccc([C@H]2c3[nH]c4ccc(Cl)cc4c3CCN2c2ncccn2)cc1)CN1CCOCC1 [Compound 1254]	> 8.10
C=CCOc1ccc([C@H]2c3[nH]c4ccc(Cl)cc4c3CCN2C(=O)OCC)cc1 [Compound 1217]	> 8.10
COc1ccc(OC(=O)N2CCc3c([nH]c4cccc(Cl)c34)C2c2ccc(OC)cc2)cc1 (centres unmarked) [Compound 1534]	6.00 to 6.70
C=CCOC(=O)N1CCc2c([nH]c3ccc(Cl)cc23)C1c1ccc(OCCCn2ccnn2)cc1 (centres unmarked) [Compound 1080]	> 8.10
COc1ccc(C2c3[nH]c4ccc(C#N)cc4c3CCN2C(=O)Oc2ccc(Cl)cc2)cc1 (centres unmarked) [Compound 1513]	6.70 to 7.40
COC(=O)N1CCc2c([nH]c3c(C)cccc23)C1c1ccc(OC)cc1 (centres unmarked) [Compound 1431]	< 6.00
CCCN(CCC)CCCOc1ccc([C@H]2c3[nH]c4ccc(Cl)cc4c3CCN2C(=O)Oc2ccc(Cl)cc2)cc1 [Compound 1234]	> 8.10

Structure (SMILES)	pEC50
C=CCCOC(=O)N1CCc2c([nH]c3ccc(Cl)cc23)C1c1ccc(OCC2OCCO2)cc1 (centres unmarked) [Compound 1045]	> 8.10
CC(=O)N[C@@H](Cc1ccccc1)C(=O)N1CCc2c([nH]c3ccc(Cl)cc23)C1c1ccc(OCCN2CCOCC2)cc1 (some centres unmarked) [Compound 1506]	< 6.00
CC#CCOC(=O)N1CCc2c([nH]c3cc(Cl)ccc23)C1c1ccc(OC)cc1 (centres unmarked) [Compound 1443]	6.00 to 6.70
CCOC(=O)N1CCc2c([nH]c3ccc(Cl)cc23)C1c1ccc(OCC(O)CNC(=O)c2ccccn2)cc1 (centres unmarked) [Compound 1469]	> 8.10
COc1ccc(OC(=O)N2CCc3c([nH]c4cc(C(F)(F)F)ccc34)C2c2ccc(OC)cc2)cc1 (centres unmarked) [Compound 1425]	< 6.00
CCOC(=O)N1CCc2c([nH]c3ccc(Cl)cc23)[C@@H]1c1ccc(OCCC(O)CNS(=O)(=O)C2CC2)cc1 (some centres unmarked) [Compound 1624]	> 8.10
COc1ncc(C2c3[nH]c4ccc(Cl)cc4c3CCN2C(=O)Oc2ccc(Cl)cc2)cn1 (centres unmarked) [Compound 1689]	7.40 to 8.10
COc1ccc(C2c3[nH]c4ccc(Cl)cc4c3CCN2C(=O)OCCn2cncn2)cc1 (centres unmarked) [Compound 1158]	< 6.00
[H]/N=C(\N)NCCOc1ccc(C2c3[nH]c4ccc(Cl)cc4c3CCN2C(=O)OCC#CC)cc1 (centres unmarked) [Compound 1402]	6.00 to 6.70
CCOC(=O)N1CCc2c([nH]c3ccc(Cl)cc23)[C@@H]1c1ccc(OCC(CC)(CO)CO)cc1 [Compound 1324]	> 8.10
COc1ccc(C2c3[nH]c4ccc(Cl)cc4c3CCN2c2nc(CC(C)=O)cs2)cc1 (centres unmarked) [Compound 1596]	7.40 to 8.10
CC1(C)OC[C@H](COc2ccc([C@H]3c4[nH]c5ccc(Cl)cc5c4CCN3C(=O)Oc3ccc(Cl)cc3)cc2)O1 [Compound 1227]	> 8.10
COc1ccc(C2NCCc3c2[nH]c2ccc(C#N)cc32)cc1 (centres unmarked) [Compound 1519]	< 6.00
O=C(Oc1ccc(Cl)cc1)N1CCc2c([nH]c3ccc(Cl)cc23)[C@@H]1c1ccc(Oc2ncc(CN3CCOCC3)s2)cc1 [Compound 1660]	> 8.10
CS(=O)(=O)CCCOc1ccc([C@H]2c3[nH]c4ccc(Cl)cc4c3CCN2C(=O)Oc2ccc(Cl)cc2)cc1 [Compound 1648]	> 8.10
COc1ccc(C2c3[nH]c4ccc([S+](C)[O-])cc4c3CCN2C(=O)OC(C)(C)C)cc1 (centres unmarked) [Compound 1494]	< 6.00
COc1ccc(C2c3[nH]c4cccc(Br)c4c3CCN2C(=O)Oc2ccc(F)cc2)cc1 (centres unmarked) [Compound 1524]	6.70 to 7.40
CC(C)(C)OC(=O)N1CCc2c([nH]c3ccc(Cl)cc23)C1c1ccc(OCCCCl)cc1 (centres unmarked) [Compound 1189]	> 8.10
COc1ccc(C2c3[nH]c4c(C)cccc4c3CCN2C(=O)Oc2ccc(C)cc2)cc1 (centres unmarked) [Compound 1426]	< 6.00
CCOC(=O)N1CCc2c([nH]c3ccc(Cl)cc23)[C@@H]1c1ccc(OCCC(O)CNC(=O)OCCOC)cc1 (some centres unmarked) [Compound 1621]	> 8.10
COc1ccc(OC(=O)N2CCc3c([nH]c4cc(Br)ccc34)C2c2ccc(OC(F)F)cc2)cc1 (centres unmarked) [Compound 1447]	6.70 to 7.40
COc1cc(C2c3[nH]c4ccc(Cl)cc4c3CCN2C(=O)Oc2ccc(Cl)cc2)ccc1OCCCCN1CCOCC1 (centres unmarked) [Compound 1094]	7.40 to 8.10
CCCOC(=O)NCC(O)COc1ccc(C2c3[nH]c4ccc(Cl)cc4c3CCN2C(=O)OCC)cc1 (centres unmarked) [Compound 1471]	> 8.10
C=CCOc1ccc([C@H]2c3[nH]c4ccc(Cl)cc4c3CCN2P(=O)(OCC)OCC)cc1 [Compound 1608]	< 6.00

Structure (SMILES)	pEC50
COc1cc(C2c3[nH]c4ccc(Cl)cc4c3CCN2C(=O)Oc2ccc(C)cc2)ccc1OCCCN1CCOCC1 (centres unmarked) [Compound 1132]	7.40 to 8.10
COc1ncc(C2NCCc3c2[nH]c2ccc(Cl)cc32)cn1 (centres unmarked) [Compound 1688]	< 6.00
CCOC(=O)N1CCc2c([nH]c3ccc(Cl)cc23)[C@@H]1c1ccc(OCC[C@H]2COC(C)(C)O2)cc1 [Compound 1202]	> 8.10
COc1cc(C2c3[nH]c4ccc(Cl)cc4c3CCN2C(=O)Oc2ccc(Cl)cc2)ccc1OCCCN1CCOCC1 (centres unmarked) [Compound 1093]	7.40 to 8.10
O=C(OCCF)N1CCc2c([nH]c3cc(Br)ccc23)C1c1ccc(OC(F)F)cc1 (centres unmarked) [Compound 1448]	6.00 to 6.70
O=C(Oc1ccc(Cl)cc1)N1CCc2c([nH]c3ccc(Cl)cc23)[C@@H]1c1ccc(OCCCNC(CO)(CO)CO)cc1 [Compound 1255]	6.70 to 7.40
CCOC(=O)NC[C@H](O)COc1ccc([C@H]2c3[nH]c4ccc(Cl)cc4c3CCN2C(=O)Oc2ccc(F)cc2)cc1 [Compound 1663]	> 8.10
O=C(Oc1ccc(Cl)cc1)N1CCc2c([nH]c3cc(Br)ccc23)C1c1ccc(OC(F)F)cc1 (centres unmarked) [Compound 1446]	6.70 to 7.40
CC#CCOC(=O)N1CCc2c([nH]c3ccc(Cl)cc23)[C@@H]1c1ccc(OC2CCN(S(=O)(=O)CC[Si](C)(C)C)CC2)cc1 [Compound 1606]	> 8.10
O=C(c1ccc(Cl)cc1)N1CCc2c([nH]c3ccc(Cl)cc23)C1c1ccc(OCCCN2CCOCC2)cc1 (centres unmarked) [Compound 1136]	6.70 to 7.40
COc1ccc(OC(=O)N2CCc3c([nH]c4cccc(Br)c34)C2c2ccc(OC)cc2)cc1 (centres unmarked) [Compound 1527]	6.00 to 6.70
CCOC(=O)N1CCc2c([nH]c3ccc(Cl)cc23)[C@@H]1c1ccc(OCC2(C)COC(C)(C)OC2)cc1 [Compound 1284]	> 8.10
O=C(OCC1CCCC1)N1CCc2c([nH]c3ccc(Cl)cc23)[C@@H]1c1ccc(OC[C@H](O)CO)cc1 [Compound 1685]	> 8.10
O=C(OCC1CCCC1)N1CCc2c([nH]c3ccc(Cl)cc23)[C@@H]1c1ccc(OC[C@@H](O)CO)cc1 [Compound 1686]	> 8.10
O=C(Oc1ccc(Cl)cc1)N1CCc2c([nH]c3ccc(Cl)cc23)[C@@H]1c1ccc(OC[C@@H](O)CN2CCOCC2)cc1 [Compound 1071]	> 8.10
COc1ccc(C2c3[nH]c4ccc(C#N)cc4c3CCN2C(=S)Oc2ccc(F)cc2)cc1 (centres unmarked) [Compound 1515]	6.70 to 7.40
COc1ccc(OC(=O)N2CCc3c([nH]c4ccc(SC)cc34)C2c2ccc(OC)cc2)cc1 (centres unmarked) [Compound 1484]	6.70 to 7.40
CN1CCN(C[C@H](O)COc2ccc([C@H]3c4[nH]c5ccc(Cl)cc5c4CCN3c3ncccn3)cc2)CC1 [Compound 1308]	> 8.10
C[Si](C)(C)CCS(=O)(=O)N1CCC(Oc2ccc([C@H]3c4[nH]c5ccc(Cl)cc5c4CCN3C(=O)Oc3ccc(F)cc3)cc2)CC1 [Compound 1607]	> 8.10
CC(C)COC(=O)N1CCc2c([nH]c3ccc(Br)cc23)C1c1ccc(OCC(O)CO)cc1 (centres unmarked) [Compound 1342]	> 8.10
CCOC(COc1ccc(C2c3[nH]c4ccc(Cl)cc4c3CCN2C(=O)Oc2ccc(Cl)cc2)cc1)OCC (centres unmarked) [Compound 1228]	> 8.10
CCOC(=O)N1CCc2c([nH]c3ccc(Cl)cc23)C1c1ccc(OCCCOCCOC)cc1 (centres unmarked) [Compound 1396]	< 6.00
O=C(Oc1ccc(Cl)cc1)N1CCc2c([nH]c3cc(F)ccc23)C1c1ccc(F)cc1 (centres unmarked) [Compound 1459]	< 6.00
